This note sets out measurements from patent US10717727B2, “Pyridinium compounds” (TORRENT PHARMACEUTICALS LIMITED, priority 2015, dated 2020).

The test concerns Diabetic rats. Description: In vivo study of effect on Nerve Conduction Velocity (NCV) in streptozotocin-induced diabetic rats. The settings on record: 150 mg/kg, 8 weeks of treatment after 12 weeks of diabetes, streptozotocin diabetic male Wistar rats; compared with diabetic control rats treated with vehicle; ***p<0.001 by student's t-test (FIG. 1). Here is the method: Motor nerve conduction velocity evaluation was performed as a measure of AGE related diabetic complications.
In vivo study to evaluate effect of compound of present invention on Nerve Conduction Velocity
Healthy male Wistar rats, 170-250 g, 6-10 weeks old, were selected for the study. The animals were divided into two groups i.e. a non-diabetic control group (Normal Control Rats) and a diabetic group. Diabetes was induced (in the diabetic group of animals) by a single intraperitoneal injection of streptozotocin (60 mg/kg body weight) dissolved in citrate buffer (pH 4.5) (Biro et al; Brain Research Bulletin (1997) 44(3): 259-263). […]
150 mg/kg of Compound No 1 was administered to diabetic rats and diabetic control group was treated with vehicle for Compound 1. The rats were monitored throughout the experiment for water intake, food intake, changes in body weight, blood biochemistry parameters, urine parameters and mortality. […]
After 8 weeks of treatment NCV was estimated as described by Biro et al, (1997). […] Electromyograms (EMG's) from the plantar muscles were amplified and recorded using a data acquisition system (MacLab®, ADI instruments). […] Latency and the duration of the M responses were measured and the motor nerve conduction velocity (MNCV) was calculated. […]
Anode was placed in proximity to the cathode. Upon stimulation of the nerve, responses (EMG) were recorded from the plantar surface. […]

As to `CS(=O)(=O)NNC(=O)c1ccc[n+](CC(=O)c2cccs2)c1` [Compound 1], the “Nerve Conduction Velocity (NCV)” value is “improvement in NCV”.
